From US20150031668A1, “CHROMAN DERIVATIVES AS TRPM8 INHIBITORS” (AMGEN INC., priority 2013, published 2015)

Biological target: T1, human TRPM8 (Homo sapiens, UniProt Q7Z2W7)
T1 construct: expressed in transfected cells; host or cells: Chinese hamster ovary (CHO) cells, T-REx tetracycline-inducible expression system (Invitrogen); co-transfected with pcDNA3.1 aequorin
Test: Luminescence readout assay for measuring intracellular calcium (aequorin, CHO cells expressing human TRPM8; icilin, L-menthol or cold activation)
Format: cell-based
Settings: CHO cells expressing human TRPM8, icilin activation (1 μM), aequorin luminescence; read-out: hTRPM8 IC50
Method in brief: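 Activation was by 1 μM icilin, 100 μM L-menthol (test compound 2.5 min ahead) or cold buffer below 10° C (compound 1 min ahead). Calcium rise measured as aequorin luminescence in CHO cells with tetracycline-inducible human TRPM8.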

T1 sequence (Q7Z2W7 whole entry): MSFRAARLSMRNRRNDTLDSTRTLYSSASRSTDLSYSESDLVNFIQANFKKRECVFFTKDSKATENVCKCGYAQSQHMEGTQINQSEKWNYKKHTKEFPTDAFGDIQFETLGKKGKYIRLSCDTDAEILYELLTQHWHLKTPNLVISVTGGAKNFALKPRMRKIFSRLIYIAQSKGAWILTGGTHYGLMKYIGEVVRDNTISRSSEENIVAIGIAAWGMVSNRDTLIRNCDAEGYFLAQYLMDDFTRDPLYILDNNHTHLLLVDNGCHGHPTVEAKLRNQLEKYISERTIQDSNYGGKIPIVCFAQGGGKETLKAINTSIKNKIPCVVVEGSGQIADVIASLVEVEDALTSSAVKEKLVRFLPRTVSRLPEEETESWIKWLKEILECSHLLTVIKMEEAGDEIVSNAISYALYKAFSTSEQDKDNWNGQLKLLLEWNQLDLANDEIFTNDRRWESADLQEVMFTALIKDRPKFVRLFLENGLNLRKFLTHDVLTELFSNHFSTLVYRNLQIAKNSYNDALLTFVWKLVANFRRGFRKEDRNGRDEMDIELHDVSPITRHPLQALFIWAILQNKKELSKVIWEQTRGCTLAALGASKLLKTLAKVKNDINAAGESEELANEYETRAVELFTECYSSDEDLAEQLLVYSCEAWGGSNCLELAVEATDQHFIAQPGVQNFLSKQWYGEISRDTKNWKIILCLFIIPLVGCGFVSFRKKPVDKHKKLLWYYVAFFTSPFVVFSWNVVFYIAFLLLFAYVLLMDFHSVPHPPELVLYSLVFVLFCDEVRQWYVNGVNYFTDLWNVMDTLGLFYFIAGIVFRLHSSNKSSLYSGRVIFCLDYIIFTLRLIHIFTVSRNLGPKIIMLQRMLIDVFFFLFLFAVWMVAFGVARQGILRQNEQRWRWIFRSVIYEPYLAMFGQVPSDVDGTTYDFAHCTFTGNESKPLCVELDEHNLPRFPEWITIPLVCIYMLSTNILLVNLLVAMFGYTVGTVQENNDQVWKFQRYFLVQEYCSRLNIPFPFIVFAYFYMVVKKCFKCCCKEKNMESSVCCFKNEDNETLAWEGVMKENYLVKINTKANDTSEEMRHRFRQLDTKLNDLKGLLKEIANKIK

Row | Structure (SMILES) | IC50
1 | CS(=O)(=O)c1ccc(-c2ccc([C@@]3(NC(=O)c4ccc(F)cc4)CCOc4cccnc43)cc2)cc1 [Example 119, (S)-4-fluoro-N-(4-(4′-(methylsulfonyl)-[1,1′-biphenyl]-4-yl)-3,4-dihydro-2H-pyrano[3,2-b]pyridin-4-yl)benzamide] | 879 nM
2 | O=C(N[C@]1(c2ccc(-c3ccccc3O)cc2)CCOc2cccnc21)c1ccc(F)cc1 [Example 120, (S)-4-fluoro-N-(4-(2′-hydroxy-[1,1′-biphenyl]-4-yl)-3,4-dihydro-2H-pyrano[3,2-b]pyridin-4-yl)benzamide] | 524 nM
3 | CC(=O)Nc1ccc(-c2ccc([C@@]3(NC(=O)c4ccc(F)cc4)CCOc4cccnc43)cc2)cc1 [Example 121, (S)-N-(4-(4′-acetamido-[1,1′-biphenyl]-4-yl)-3,4-dihydro-2H-pyrano[3,2-b]pyridin-4-yl)-4-fluorobenzamide] | 1250 nM
4 | O=C(N[C@]1(c2ccc(-c3ccc(F)c(CO)c3)cc2)CCOc2cccnc21)c1ccc(F)cc1 [Example 122, (S)-4-fluoro-N-(4-(4′-fluoro-3′-(hydroxymethyl)-[1,1-biphenyl]-4-yl)-3,4-dihydro-2H-pyrano[3,2-b]pyridin-4-yl)benzamide] | 1520 nM
5 | NC(=O)c1cc(-c2ccc([C@@]3(NC(=O)c4ccc(F)cc4)CCOc4cccnc43)cc2)ccc1Cl [Example 123, (S)-4-chloro-4′-(4-(4-fluorobenzamido)-3,4-dihydro-2H-pyrano[3,2-b]pyridin-4-yl)-[1,1′-biphenyl]-3-carboxamide] | 3560 nM
6 | O=C(N[C@]1(c2ccc(-c3cncnc3)cc2)CCOc2cccnc21)c1ccc(F)cc1 [Example 124, (S)-4-fluoro-N-(4-(4-(pyrimidin-5-yl)phenyl)-3,4-dihydro-2H-pyrano[3,2-b]pyridin-4-yl)benzamide] | 1410 nM
7 | Cc1noc(C)c1-c1ccc([C@@]2(NC(=O)c3ccc(F)cc3)CCOc3cccnc32)cc1 [Example 125, (S)-N-(4-(4-(3,5-dimethylisoxazol-4-yl)phenyl)-3,4-dihydro-2H-pyrano[3,2-b]pyridin-4-yl)-4-fluorobenzamide] | 429 nM
8 | Nc1cccc(-c2ccc([C@@]3(NC(=O)c4ccc(F)cc4)CCOc4cccnc43)cc2)c1 [Example 126, (S)-N-(4-(3′-amino-[1,1′-biphenyl]-4-yl)-3,4-dihydro-2H-pyrano[3,2-b]pyridin-4-yl)-4-fluorobenzamide] | 908 nM
9 | COc1ncc(-c2ccc([C@@]3(NC(=O)c4ccc(F)cc4)CCOc4cccnc43)cc2)cn1 [Example 127, (S)-4-fluoro-N-(4-(4-(2-methoxypyrimidin-5-yl)phenyl)-3,4-dihydro-2H-pyrano[3,2-b]pyridin-4-yl)benzamide] | 336 nM
10 | O=C(N[C@]1(c2ccc(-c3ccccc3CO)cc2)CCOc2cccnc21)c1ccc(F)cc1 [Example 128, (S)-4-fluoro-N-(4-(2′-(hydroxymethyl)-[1,1′-biphenyl]-4-yl)-3,4-dihydro-2H-pyrano[3,2-b]pyridin-4-yl)benzamide] | 501 nM
11 | CN(C)C(=O)c1cccc(-c2ccc([C@@]3(NC(=O)c4ccc(F)cc4)CCOc4cccnc43)cc2)c1 [Example 129, (S)-4′-(4-(4-fluorobenzamido)-3,4-dihydro-2H-pyrano[3,2-b]pyridin-4-yl)-N,N-dimethyl-[1,1′-biphenyl]-3-carboxamide] | 2600 nM
12 | COc1ccncc1-c1ccc([C@@]2(NC(=O)c3ccc(F)cc3)CCOc3cccnc32)cc1 [Example 130, (S)-4-fluoro-N-(4-(4-(4-methoxypyridin-3-yl)phenyl)-3,4-dihydro-2H-pyrano[3,2-b]pyridin-4-yl)benzamide] | 1000 nM
13 | COc1ncccc1-c1ccc([C@@]2(NC(=O)c3ccc(F)cc3)CCOc3cccnc32)cc1 [Example 131, (S)-4-fluoro-N-(4-(4-(2-methoxypyridin-3-yl)phenyl)-3,4-dihydro-2H-pyrano[3,2-b]pyridin-4-yl)benzamide] | 113 nM
